# US20230312556A1, “ARYLAMIDE COMPOUND, PHARMACEUTICAL COMPOSITION COMPRISING SAME, AND PREPARATION METHOD THEREFOR AND USE THEREOF” (SICHUAN KELUN-BIOTECH BIOPHARMACEUTICAL CO., LTD., priority 2020, published 2023)
# Assays:
# [1] = Pharmacokinetic test in Beagle dogs; type: in vivo
# Description: The compounds were administered to male Beagle dogs by gavage (PO) to investigate the pharmacokinetic profile.
# Compound 1 of the present invention and HM95573 were administered via PO; the administration dosage was 2.5 mg/kg, and the solvent was a 20% aqueous solution of hydroxypropyl-β-cyclodextrin. Blood samples were collected before the administration (0 h) and at 0.25, 0.5, 1, 2, 4, 6, 8, 24, 48, and 72 hours after the administration, and 1 mL blood was collected from the limbs vein and placed in a K2-EDTA anticoagulation tube. After centrifugation at 4000 rpm for 5 min (4° C.), the plasma was separated and stored at −80° C. for testing. The plasma samples were processed by precipitating proteins, and then subjected to LC-MS/MS analysis. The pharmacokinetic parameters were calculated using the WinNonlin 6.3 software and employing a non-compartmental model, and the results are shown in Table 7.
# [2] = Pharmacokinetic test in Balb/c mice; type: in vivo
# Description: The compounds were administered to female Balb/c mice by gavage (PO) to investigate the pharmacokinetic profile.
# Compound 1 of the present invention and HM95573 (prepared according to Example 116 in CN104039798B) were administered via PO; the administration dosage was 10 mg/kg, and the administration vehicle was a 20% aqueous solution of hydroxypropyl-β-cyclodextrin. Blood samples were collected before the administration (0 h) and at 0.25, 0.5, 1, 2, 4, 6, 8, 24, 48, and 72 h after the administration; 50-70 μL of blood was drawn from the orbit and spotted on Whatman 903 card, which was air-dried at room temperature for testing. After the testing, the samples were placed in a sealed dry box and stored at −80° C. (DBS samples). The DBS samples were punched with a 6 mm punch, then 80 μL of 50% acetonitrile-water was added and shaken (800 rpm, 10 min), followed by sonication for 10 min, then 350 μL of acetonitrile containing internal standard was added and shaken (700 rpm, 10 min). After sonication for 10 min, the samples were centrifuged at 4000 rpm and 4° C. for 10 min, and the supernatant was collected for LC-MS/MS analysis. The pharmacokinetic parameters were calculated using the WinNonlin 6.3 software and employing a non-compartmental model, and the results are shown in Table 6.
# wild-type BRAF enzyme = wild-type BRAF enzyme (Homo sapiens (Human), UniProt P15056); test: RAF inhibition assay (TB-PMAP2K1 kit), wild-type BRAF; type: biochemical; details: FLUORESCEIN-MAP2K1 substrate, 60 min reaction
# Description: Assay protocol: the inhibitory effects of the compounds of the present invention on the wild-type BRAF enzyme, mutant CRAF enzyme (RAF1 Y340D and Y341D) and mutant BRAF enzyme (BRAF-V600E) activity were determined according to the instructions of the TB-PMAP2K1 (PSER217/221) kit (ThermoFisher). Different RAF enzymes and substrates (FLUORESCEIN-MAP2K1) were pre-incubated with test compounds at various concentrations at room temperature for 15 min, and then the adenosine triphosphate (ATP) was added to initiate the reaction. After incubation at room temperature for 60 min, EDTA and Tb-labeled anti-pMAP2K1 [pS217/221] antibody solutions were added, and incubation was performed at room temperature for 60 min before the detection of the fluorescence values of the compounds in each group. With the vehicle group (DMSO) as the negative control and the buffer group (without RAF enzyme) as the blank control, the relative inhibitory activity percentage (i.e., the inhibition rate) of a compound at different concentrations was calculated according to the following formula:
# Relative inhibitory activity percentage=1−(Compound group at various concentrations−blank control)/(negative control−blank control)*100%
# The relative inhibitory activity percentages of the compounds at different concentrations were plotted against the compound concentrations, the curve was fitted according to a four-parameter model, and the IC50 value was calculated according to the following formula:
# y=min+(max−min)/(1+(x/IC50)^(−Hillslope))
# wherein y is the relative inhibitory activity percentage, max and min are respectively the maximum and minimum values of the fitted curve, x is the logarithm concentration of the compound, and Hillslope is the slope of the curve.
# [3] = test system: human melanoma cell A375 (BRAF-V600E mutation); test: Cancer cell proliferation inhibition assay, A375; type: cell-based; details: A-375, 72 h incubation, Cell Titer Glo
# Description: (§1) The inhibitory effects of the compounds of the present invention on cancer cell proliferation were further evaluated by testing the effects of the compounds of the present invention on the growth of cancer cells.
# (§2) In this example, human melanoma cell A375 (BRAF-V600E mutation, purchased from the Cell Bank of the Chinese Academy of Sciences) and human hepatocellular carcinoma cell HepG2 (NRAS-Q61K mutation, purchased from ATCC, USA) were employed.
# (§3) In this example, the test compounds at various concentrations (100000 nM, 30000 nM, 10000 nM, 3000 nM, 1000 nM, 300 nM, 100 nM, 30 nM, 10 nM) were added to the above cells, and the incubation was performed for 72 h. The inhibitory activity of the compounds was tested by measuring ATP in living cells using the Cell Titer Glo Kit (Promega).
# (§4) The IC50 values of the compounds of the present invention for each tested cell were determined, and the test results are as follows: […]
# [4] = test system: human hepatocellular carcinoma cell HepG2 (NRAS-Q61K mutation); test: Cancer cell proliferation inhibition assay, HepG2; type: cell-based; details: 72 h incubation, Cell Titer Glo
# Description: as §1, §2, §3, §4
# [5] = dog, male Beagle dogs, PO, 2.5 mg/kg, plasma
# [6] = mouse, whole blood (dried blood spots), female Balb/c mice, PO, 10 mg/kg, DBS samples
# [7] = male Beagle dogs, PO, 2.5 mg/kg, plasma
# [8] = female Balb/c mice, PO, 10 mg/kg, DBS samples
# Chain of wild-type BRAF enzyme (P15056 whole entry): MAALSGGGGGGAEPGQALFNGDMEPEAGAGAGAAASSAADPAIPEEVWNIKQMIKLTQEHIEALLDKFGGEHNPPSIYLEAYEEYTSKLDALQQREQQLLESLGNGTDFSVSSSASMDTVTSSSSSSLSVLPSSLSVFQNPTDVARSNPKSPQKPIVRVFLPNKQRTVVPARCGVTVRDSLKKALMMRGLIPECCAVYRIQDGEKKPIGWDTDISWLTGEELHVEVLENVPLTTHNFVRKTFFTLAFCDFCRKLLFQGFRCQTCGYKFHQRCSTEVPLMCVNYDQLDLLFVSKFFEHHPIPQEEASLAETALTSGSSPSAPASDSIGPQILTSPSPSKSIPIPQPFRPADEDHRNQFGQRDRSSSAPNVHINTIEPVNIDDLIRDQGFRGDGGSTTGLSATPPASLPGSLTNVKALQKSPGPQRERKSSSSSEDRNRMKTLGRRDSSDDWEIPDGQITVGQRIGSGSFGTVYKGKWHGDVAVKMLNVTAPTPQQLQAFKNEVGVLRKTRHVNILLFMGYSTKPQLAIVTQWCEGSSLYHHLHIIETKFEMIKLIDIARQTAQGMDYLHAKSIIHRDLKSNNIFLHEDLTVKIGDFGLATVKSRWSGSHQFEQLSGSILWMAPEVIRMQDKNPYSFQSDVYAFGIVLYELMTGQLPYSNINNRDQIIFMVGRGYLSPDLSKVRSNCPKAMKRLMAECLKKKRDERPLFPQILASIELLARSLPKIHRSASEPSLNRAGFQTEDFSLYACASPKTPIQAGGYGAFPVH
SMILES,IC50 (wild-type BRAF enzyme) [nM],IC50 [3] [nM],IC50 [4] [nM],also measured
"Cc1ccc2c(Nc3cccc(Cl)c3F)nccc2c1NC(=O)c1cccc2c(N)ncnc12 [Compound 1, 4-amino-N-(1-((3-chloro-2-fluorophenyl)amino)-6-methylisoquinolin-5-yl)quinazoline-8-carboxamide]",18.7 ± 2.71,29.3 ± 2.3,71.3 ± 5.5,"AUC(0-t) [1, 5]: 31000 ± 4240 ng·h/mL; half-life [1, 5]: 15.4 ± 4.1 h; Cmax ([1]; dog, male Beagle dogs, PO, 2.5 mg/kg, plasma, read-out: Cmax): 1800 ± 127 ng/mL; Tmax ([1]; dog, male Beagle dogs, PO, 2.5 mg/kg, plasma, read-out: Tmax): 1 h; Conclusion on pharmacokinetics in dogs ([1]; dogs after PO administration): Conclusion: Compound 1 of the present invention has a high maximum plasma concentration, high exposure, long half-life and good overall PK properties in dogs after PO administration.; Conclusion on pharmacokinetics in mice ([2]; mice after PO administration): Conclusion: compound 1 of the present invention has a high maximum plasma concentration and a high exposure in mice after PO administration.; AUC(0-t) [2, 6]: 172000 ± 18300 ng·h/mL; half-life [2, 6]: 8.33 ± 0.95 h; Cmax ([2]; mouse, whole blood (dried blood spots), female Balb/c mice, PO, 10 mg/kg, DBS samples, read-out: Cmax): 8240 ± 586 ng/mL; Tmax ([2]; mouse, whole blood (dried blood spots), female Balb/c mice, PO, 10 mg/kg, DBS samples, read-out: Tmax): 1.67 ± 0.58 h"
"Cc1ccc2c(Nc3cccc(Cl)c3F)nccc2c1NC(=O)c1cc(F)cc2c(N)ncnc12 [Compound 46, 4-amino-N-(1-((3-chloro-2-fluorophenyl)amino)-6-methylisoquinolin-5-yl)-6-fluoroquinazoline-8-carboxamide]",79.3 ± 19.5,89.3 ± 5.2,74.4 ± 7.91,
"COc1ccc(Nc2nccc3c(NC(=O)c4cccc5c(N)ncnc45)c(C)ccc23)c(F)c1 [Compound 60, 4-amino-N-(1-((2-fluoro-4-methoxyphenyl)amino)-6-methylisoquinolin-5-yl)quinazoline-8-carboxamide]",8.48 ± 0.9,28 ± 3.12,34.1 ± 4.32,
"Cc1ccc2c(Nc3ccc(F)cc3F)nccc2c1NC(=O)c1cccc2c(N)ncnc12 [Compound 67, 4-amino-N-(1-((2,4-difluorophenyl)amino)-6-methylisoquinolin-5-yl)quinazoline-8-carboxamide]",13.2 ± 1.67,184 ± 16.9,56.7 ± 9.3,
"Cc1ccc2c(Nc3cc(Cl)ccc3F)nccc2c1NC(=O)c1cccc2c(N)ncnc12 [Compound 73, 4-amino-N-(1-((5-chloro-2-fluorophenyl)amino)-6-methylisoquinolin-5-yl)quinazoline-8-carboxamide]",36.2 ± 16.5,109 ± 22.8,59.6 ± 2.2,
"Cc1ccc2c(Nc3ccc(F)cc3F)nccc2c1NC(=O)c1cc(F)cc2c(N)ncnc12 [Compound 85, 4-amino-N-(1-((2,4-difluorophenyl)amino)-6-methylisoquinolin-5-yl)-6-fluoroquinazoline-8-carboxamide]",12.9 ± 0.9,148 ± 3.8,40.1 ± 6.97,
"Cc1ccc2c(Nc3cc(S(C)(=O)=O)ccc3F)nccc2c1NC(=O)c1cccc2c(N)ncnc12 [Compound 89, 4-amino-N-(1-((2-fluoro-5-(methylsulfonyl)phenyl)amino)-6-methylisoquinolin-5-yl)quinazoline-8-carboxamide]",20.4 ± 1.3,111 ± 5.2,106 ± 25.2,
"Cc1ccc2c(Nc3cc(F)c(F)cc3F)nccc2c1NC(=O)c1cccc2c(N)ncnc12 [Compound 90, 4-amino-N-(6-methyl-1-((2,4,5-trifluorophenyl)amino)isoquinolin-5-yl)quinazoline-8-carboxamide]",26.5 ± 2.18,74 ± 6.3,118 ± 12.6,
"Nc1ncnc2c(C(=O)Nc3c(F)ccc4c(Nc5cccc(Cl)c5F)nccc34)cccc12 [Compound 92, 4-amino-N-(1-((3-chloro-2-fluorophenyl)amino)-6-fluoroisoquinolin-5-yl)quinazoline-8-carboxamide]",21.8 ± 3.89,128 ± 8,49.8 ± 4.3,
"Cc1ccc2c(Nc3cccc(Cl)c3F)nccc2c1NC(=O)c1ccc(F)c2c(N)ncnc12 [Compound 93, 4-amino-N-(1-((3-chloro-2-fluorophenyl)amino)-6-methylisoquinolin-5-yl)-5-fluoroquinazoline-8-carboxamide]",13.5 ± 1.02,61.7 ± 3.6,62.9 ± 11.3,
"Cc1ccc2c(Nc3c(F)cc(F)cc3F)nccc2c1NC(=O)c1cccc2c(N)ncnc12 [Compound 94, 4-amino-N-(6-methyl-1-((2,4,6-trifluorophenyl)amino)isoquinolin-5-yl)quinazoline-8-carboxamide]",10.3 ± 1,58.8 ± 5.6,47.4 ± 6.5,
"Cc1ccc2c(Nc3cccc(Cl)c3F)nccc2c1NC(=O)c1csc2c(N)ncnc12 [HM95573, reference compound]",,,,"AUClast [1, 7]: 13080 ± 6254 ng·h/mL; Cmax [1, 7]: 989 ± 411 ng/mL; T1/2 [1, 7]: 8.43 ± 1.76 h; Tmax [1, 7]: 1.33 ± 0.58 h; AUClast [2, 8]: 110760 ± 9636 ng·h/mL; Cmax [2, 8]: 4710 ± 806 ng/mL; T1/2 [2, 8]: 9.57 ± 0.58 h; Tmax [2, 8]: 1.67 ± 0.58 h"
